According to patent US11285218B2, “Degradation of bromodomain-containing protein 9 (BRD9) by conjugation of BRD9 inhibitors with E3 ligase ligand and methods of use” (Dana-Farber Cancer Institute, Inc., priority 2016, dated 2022):
Entries after “also recorded” stand apart in the source; their conditions may differ.

Legend:
BRD7 [1] = biological target: BRD7 (Homo sapiens, UniProt Q9NPI1); test: BRD7 immunoblot in MOLM-13; details: MOLM-13, 4 hour treatment
Target sequence in this assay (Q9NPI1 whole entry): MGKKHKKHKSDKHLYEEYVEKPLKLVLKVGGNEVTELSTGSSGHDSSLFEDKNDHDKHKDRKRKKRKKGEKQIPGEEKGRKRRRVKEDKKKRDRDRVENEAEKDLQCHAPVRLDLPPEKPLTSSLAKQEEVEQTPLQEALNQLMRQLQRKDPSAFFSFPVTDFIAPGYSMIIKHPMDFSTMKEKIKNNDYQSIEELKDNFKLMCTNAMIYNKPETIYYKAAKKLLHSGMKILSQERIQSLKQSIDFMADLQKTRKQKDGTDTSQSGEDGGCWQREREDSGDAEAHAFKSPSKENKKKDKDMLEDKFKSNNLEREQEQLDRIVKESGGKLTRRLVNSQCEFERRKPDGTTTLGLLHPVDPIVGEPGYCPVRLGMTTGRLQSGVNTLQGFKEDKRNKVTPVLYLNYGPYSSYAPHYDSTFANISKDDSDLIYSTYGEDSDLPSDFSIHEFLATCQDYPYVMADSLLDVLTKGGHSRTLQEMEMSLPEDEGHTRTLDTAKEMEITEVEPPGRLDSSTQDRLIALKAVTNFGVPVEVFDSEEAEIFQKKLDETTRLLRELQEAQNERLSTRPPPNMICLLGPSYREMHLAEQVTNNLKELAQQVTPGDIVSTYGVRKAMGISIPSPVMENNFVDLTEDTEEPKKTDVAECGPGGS
Experimental: In additional experiments, cells were washed with PBS, before being lysed in RIPA buffer supplemented with 1×HALT™ protease inhibitor cocktail (Thermo Scientific) for 10 min on ice, followed by low-amplitude sonication for 10 seconds at 4° C. […] In soluble material was removed by centrifugation at 20,000×g for 20 min before protein content was quantified by BCA assay (Pierce). […] Blots were imaged using fluorescence-labeled secondary antibodies (LI-COR) on the OdysseyCLxImager (LI-COR).

[2] = test system: MM.1S multiple myeloma line; test: ATPlite viability assay, MM.1S; details: 72 hour treatment, in words
Experimental: 500 cells/well were plated at a volume of 40 μL/well in white tissue culture treated 384 well assay plates (Thermo Scientific) before DMSO compound stock was added from pre-diluted plates by pin transfer using a Janus Workstation (PerkinElmer, USA). […] Assay plates were allowed to equilibrate to RT for 30 min before reconstituted ATPlite 1 Step reagent (Perkin Elmer) was dispensed at 1:1 volume/well by EL406 automated liquid handler (Biotek, USA).

ATAD2A = biological target: T1, ATAD2A (Homo sapiens, UniProt Q6PL18); test: BromoScan single-point screen; assay type: binding; details: percent of protein captured on solid support vs control
T1 construct: utilizing DNA-tagged bromodomain and immobilized ligand attached to solid support
Excerpt: (§1) The BromoScan is an assay that measures the engagement of compounds with bromodomain proteins by utilizing DNA-tagged bromodomain and immobilized ligand attached to solid support. In the control test, DNA-tagged bromodomain binds to the ligand and the bromodomain is captured on the solid support. Compounds that compete for the bromodomain binding location on the ligand will prevent the bromodomain from binding, resulting in less protein captured on the solid support.

TRIM24 (PHD, Bromo.) = biological target: T2, TRIM24 (PHD, Bromo.) (Homo sapiens, UniProt O15164); test: BromoScan single-point screen; assay type: binding; details: percent of protein captured on solid support vs control
T2 construct: utilizing DNA-tagged bromodomain and immobilized ligand attached to solid support
Excerpt: as §1

CREBBP = biological target: T3, CREBBP (Homo sapiens, UniProt Q92793); test: BromoScan single-point screen; assay type: binding; details: percent of protein captured on solid support vs control
T3 construct: utilizing DNA-tagged bromodomain and immobilized ligand attached to solid support
Excerpt: as §1

BRDT(1) = biological target: T4, BRDT(1) (Homo sapiens, UniProt Q58F21); test: BromoScan single-point screen; assay type: binding; details: percent of protein captured on solid support vs control
T4 construct: utilizing DNA-tagged bromodomain and immobilized ligand attached to solid support
Excerpt: as §1

TAF1(2) = biological target: T5, TAF1(2) (Homo sapiens, UniProt P21675); test: BromoScan single-point screen; assay type: binding; details: percent of protein captured on solid support vs control
T5 construct: utilizing DNA-tagged bromodomain and immobilized ligand attached to solid support
Excerpt: as §1

BAZ^2A = biological target: T6, BAZ^2A (Homo sapiens, UniProt Q9UIF9); test: BromoScan single-point screen; assay type: binding; details: percent of protein captured on solid support vs control
T6 construct: utilizing DNA-tagged bromodomain and immobilized ligand attached to solid support
Excerpt: as §1

BRD3(2) = biological target: T7, BRD3(2) (Homo sapiens, UniProt Q15059); test: BromoScan single-point screen; assay type: binding; details: percent of protein captured on solid support vs control
T7 construct: utilizing DNA-tagged bromodomain and immobilized ligand attached to solid support
Excerpt: as §1

CECR2 = biological target: T8, CECR2 (Homo sapiens, UniProt Q9BXF3); test: BromoScan single-point screen; assay type: binding; details: percent of protein captured on solid support vs control
T8 construct: utilizing DNA-tagged bromodomain and immobilized ligand attached to solid support
Excerpt: as §1

PBRM1(5) = biological target: T9, PBRM1(5) (Homo sapiens, UniProt Q86U86); test: BromoScan single-point screen; assay type: binding; details: percent of protein captured on solid support vs control
T9 construct: utilizing DNA-tagged bromodomain and immobilized ligand attached to solid support
Excerpt: as §1

BRD2(2) = biological target: T10, BRD2(2) (Homo sapiens, UniProt P25440); test: BromoScan single-point screen; assay type: binding; details: percent of protein captured on solid support vs control
T10 construct: utilizing DNA-tagged bromodomain and immobilized ligand attached to solid support
Excerpt: as §1

BRD1 = biological target: T11, BRD1 (Homo sapiens, UniProt O95696); test: BromoScan single-point screen; assay type: binding; details: percent of protein captured on solid support vs control
T11 construct: utilizing DNA-tagged bromodomain and immobilized ligand attached to solid support
Excerpt: as §1

BRDT(2) = biological target: T12, BRDT(2) (Homo sapiens, UniProt Q58F21); test: BromoScan single-point screen; assay type: binding; details: percent of protein captured on solid support vs control
T12 construct: utilizing DNA-tagged bromodomain and immobilized ligand attached to solid support
Excerpt: as §1

WDR9(2) = biological target: T13, WDR9(2) (Homo sapiens, UniProt Q9NSI6); test: BromoScan single-point screen; assay type: binding; details: percent of protein captured on solid support vs control
T13 construct: utilizing DNA-tagged bromodomain and immobilized ligand attached to solid support
Excerpt: as §1

SMARCA2 = biological target: T14, SMARCA2 (Homo sapiens, UniProt P51531); test: BromoScan single-point screen; assay type: binding; details: percent of protein captured on solid support vs control
T14 construct: utilizing DNA-tagged bromodomain and immobilized ligand attached to solid support
Excerpt: as §1

GCN5L2 = biological target: T15, GCN5L2 (Homo sapiens, UniProt Q92830); test: BromoScan single-point screen; assay type: binding; details: percent of protein captured on solid support vs control
T15 construct: utilizing DNA-tagged bromodomain and immobilized ligand attached to solid support
Excerpt: as §1

TAF1L(2) = biological target: T16, TAF1L(2) (Homo sapiens, UniProt Q8IZX4); test: BromoScan single-point screen; assay type: binding; details: percent of protein captured on solid support vs control
T16 construct: utilizing DNA-tagged bromodomain and immobilized ligand attached to solid support
Excerpt: as §1

BRPF1 = biological target: T17, BRPF1 (Homo sapiens, UniProt P55201); test: BromoScan single-point screen; assay type: binding; details: percent of protein captured on solid support vs control
T17 construct: utilizing DNA-tagged bromodomain and immobilized ligand attached to solid support
Excerpt: as §1

FALZ = biological target: T18, FALZ (Homo sapiens, UniProt Q12830); test: BromoScan single-point screen; assay type: binding; details: percent of protein captured on solid support vs control
T18 construct: utilizing DNA-tagged bromodomain and immobilized ligand attached to solid support
Excerpt: as §1

BRD2(1) = biological target: T19, BRD2(1) (Homo sapiens, UniProt P25440); test: BromoScan single-point screen; assay type: binding; details: percent of protein captured on solid support vs control
T19 construct: utilizing DNA-tagged bromodomain and immobilized ligand attached to solid support
Excerpt: as §1

PBRM1(2) = biological target: T20, PBRM1(2) (Homo sapiens, UniProt Q86U86); test: BromoScan single-point screen; assay type: binding; details: percent of protein captured on solid support vs control
T20 construct: utilizing DNA-tagged bromodomain and immobilized ligand attached to solid support
Excerpt: as §1

PCAF = biological target: T21, PCAF (Homo sapiens, UniProt Q92831); test: BromoScan single-point screen; assay type: binding; details: percent of protein captured on solid support vs control
T21 construct: utilizing DNA-tagged bromodomain and immobilized ligand attached to solid support
Excerpt: as §1

EP300 = biological target: T22, EP300 (Homo sapiens, UniProt Q09472); test: BromoScan single-point screen; assay type: binding; details: percent of protein captured on solid support vs control
T22 construct: utilizing DNA-tagged bromodomain and immobilized ligand attached to solid support
Excerpt: as §1

ATAD2B = biological target: T23, ATAD2B (Homo sapiens, UniProt Q9ULI0); test: BromoScan single-point screen; assay type: binding; details: percent of protein captured on solid support vs control
T23 construct: utilizing DNA-tagged bromodomain and immobilized ligand attached to solid support
Excerpt: as §1

BRD3(1) = biological target: T24, BRD3(1) (Homo sapiens, UniProt Q15059); test: BromoScan single-point screen; assay type: binding; details: percent of protein captured on solid support vs control
T24 construct: utilizing DNA-tagged bromodomain and immobilized ligand attached to solid support
Excerpt: as §1

BAZ^2B = biological target: T25, BAZ^2B (Homo sapiens, UniProt Q9UIF8); test: BromoScan single-point screen; assay type: binding; details: percent of protein captured on solid support vs control
T25 construct: utilizing DNA-tagged bromodomain and immobilized ligand attached to solid support
Excerpt: as §1

BRPF3 = biological target: T26, BRPF3 (Homo sapiens, UniProt Q9ULD4); test: BromoScan single-point screen; assay type: binding; details: percent of protein captured on solid support vs control
T26 construct: utilizing DNA-tagged bromodomain and immobilized ligand attached to solid support
Excerpt: as §1

BRD7 [3] = biological target: T27, BRD7 (Homo sapiens, UniProt Q9NPI1); test: BromoScan single-point screen; assay type: binding; details: percent of protein captured on solid support vs control
T27 construct: utilizing DNA-tagged bromodomain and immobilized ligand attached to solid support
Excerpt: as §1
T27 sequence (Q9NPI1 131-235 limits assumed): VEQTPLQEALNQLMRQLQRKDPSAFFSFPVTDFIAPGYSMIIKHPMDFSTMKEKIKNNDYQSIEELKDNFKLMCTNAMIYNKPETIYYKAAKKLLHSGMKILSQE

SMARCA4 = biological target: T28, SMARCA4 (Homo sapiens, UniProt P51532); test: BromoScan single-point screen; assay type: binding; details: percent of protein captured on solid support vs control
T28 construct: utilizing DNA-tagged bromodomain and immobilized ligand attached to solid support
Excerpt: as §1

TRIM33 (PHD, Bromo.) = test: BromoScan single-point screen; assay type: binding, human; details: percent of protein captured on solid support vs control
Excerpt: as §1

[4] = test system: 32 members of the human bromodomain family; test: BromoScan single-point screen, panel profile; assay type: binding; details: single-point 1 μM, 32 bromodomains; in words
Excerpt: as §1

T3 sequence (Q92793 1085-1192 limits assumed): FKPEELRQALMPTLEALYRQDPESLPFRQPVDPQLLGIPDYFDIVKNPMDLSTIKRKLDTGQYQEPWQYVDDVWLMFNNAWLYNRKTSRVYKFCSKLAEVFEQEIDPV
T20 sequence (Q86U86 177-287 limits assumed): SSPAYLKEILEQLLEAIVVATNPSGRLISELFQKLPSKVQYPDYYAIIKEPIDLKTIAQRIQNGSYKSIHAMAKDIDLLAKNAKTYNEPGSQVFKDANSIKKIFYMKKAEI
T2 sequence (O15164 824-1006 limits assumed): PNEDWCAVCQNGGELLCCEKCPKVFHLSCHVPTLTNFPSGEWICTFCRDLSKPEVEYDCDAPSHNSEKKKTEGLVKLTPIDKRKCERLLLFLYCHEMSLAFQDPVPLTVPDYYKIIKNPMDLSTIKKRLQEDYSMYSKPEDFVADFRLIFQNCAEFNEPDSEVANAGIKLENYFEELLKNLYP
T19 sequence (P25440 74-180 limits assumed): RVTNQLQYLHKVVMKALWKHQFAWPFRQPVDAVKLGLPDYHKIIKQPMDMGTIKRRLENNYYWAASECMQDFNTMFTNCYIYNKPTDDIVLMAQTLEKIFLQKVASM
T25 sequence (Q9UIF8 2060-2164 limits assumed): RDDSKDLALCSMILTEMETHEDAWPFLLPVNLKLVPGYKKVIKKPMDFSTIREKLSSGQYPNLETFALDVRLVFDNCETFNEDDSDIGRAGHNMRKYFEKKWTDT
T5 sequence (P21675 1519-1628 limits assumed): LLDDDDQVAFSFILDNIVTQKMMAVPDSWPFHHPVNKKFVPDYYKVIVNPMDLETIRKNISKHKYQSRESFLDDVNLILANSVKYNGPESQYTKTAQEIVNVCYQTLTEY
T10 sequence (P25440 344-453 limits assumed): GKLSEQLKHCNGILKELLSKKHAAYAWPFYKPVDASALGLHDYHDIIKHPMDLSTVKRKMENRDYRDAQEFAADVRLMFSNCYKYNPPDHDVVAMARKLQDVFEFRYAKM
T24 sequence (Q15059 34-140 limits assumed): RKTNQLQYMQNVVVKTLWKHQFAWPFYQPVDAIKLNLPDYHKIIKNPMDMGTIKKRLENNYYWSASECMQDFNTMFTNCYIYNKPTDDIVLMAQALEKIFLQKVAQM
T6 sequence (Q9UIF9 1793-1897 limits assumed): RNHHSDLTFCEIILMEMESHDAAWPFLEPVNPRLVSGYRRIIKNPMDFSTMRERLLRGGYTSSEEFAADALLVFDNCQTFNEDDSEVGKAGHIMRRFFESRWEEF
T16 sequence (Q8IZX4 1517-1626 limits assumed): as the sequence (P21675 1519-1628 limits assumed) above, with V46M, M51V, V102I, L107I counted along it
T28 sequence (P51532 1453-1564 limits assumed): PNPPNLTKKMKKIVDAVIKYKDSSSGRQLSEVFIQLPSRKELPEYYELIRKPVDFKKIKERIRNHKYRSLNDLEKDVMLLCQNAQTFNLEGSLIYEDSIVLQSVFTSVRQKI
T15 sequence (Q92830 728-832 limits assumed): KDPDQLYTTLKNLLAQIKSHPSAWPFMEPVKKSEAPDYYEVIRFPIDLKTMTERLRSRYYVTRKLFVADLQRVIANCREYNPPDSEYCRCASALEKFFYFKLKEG
T9 sequence (Q86U86 653-763 limits assumed): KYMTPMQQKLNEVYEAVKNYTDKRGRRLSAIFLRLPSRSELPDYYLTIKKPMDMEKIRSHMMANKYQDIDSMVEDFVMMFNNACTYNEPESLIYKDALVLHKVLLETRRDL
T17 sequence (P55201 628-732 limits assumed): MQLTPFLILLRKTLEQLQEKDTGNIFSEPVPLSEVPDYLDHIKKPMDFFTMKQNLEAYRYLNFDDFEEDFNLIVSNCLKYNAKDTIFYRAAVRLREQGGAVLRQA
T8 sequence (Q9BXF3 434-538 limits assumed): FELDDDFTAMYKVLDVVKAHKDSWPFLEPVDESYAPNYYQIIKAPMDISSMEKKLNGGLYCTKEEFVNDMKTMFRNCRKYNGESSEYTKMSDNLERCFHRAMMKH
T1 sequence (Q6PL18 980-1092 limits assumed): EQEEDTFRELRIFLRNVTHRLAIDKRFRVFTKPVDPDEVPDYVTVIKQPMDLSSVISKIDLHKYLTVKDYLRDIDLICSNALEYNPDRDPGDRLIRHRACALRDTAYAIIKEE
T7 sequence (Q15059 306-415 limits assumed): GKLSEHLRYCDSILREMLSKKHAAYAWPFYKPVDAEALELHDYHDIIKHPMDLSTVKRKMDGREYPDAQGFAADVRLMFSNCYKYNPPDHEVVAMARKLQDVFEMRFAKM
T21 sequence (Q92831 723-827 limits assumed): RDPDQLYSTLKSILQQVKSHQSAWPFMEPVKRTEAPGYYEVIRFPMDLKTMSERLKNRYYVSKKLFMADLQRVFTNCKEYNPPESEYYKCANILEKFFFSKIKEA
T11 sequence (O95696 562-666 limits assumed): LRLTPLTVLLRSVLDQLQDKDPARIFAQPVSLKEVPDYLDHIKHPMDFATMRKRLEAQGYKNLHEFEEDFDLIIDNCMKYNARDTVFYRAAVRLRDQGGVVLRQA
T22 sequence (Q09472 1049-1156 limits assumed): as the sequence (Q92793 1085-1192 limits assumed) above, with N47S, V73I, F93Y, A98S counted along it
T26 sequence (Q9ULD4 589-693 limits assumed): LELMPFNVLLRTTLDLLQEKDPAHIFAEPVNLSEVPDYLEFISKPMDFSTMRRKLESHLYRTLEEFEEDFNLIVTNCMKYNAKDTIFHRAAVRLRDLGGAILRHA
T13 sequence (Q9NSI6 1313-1418 limits assumed): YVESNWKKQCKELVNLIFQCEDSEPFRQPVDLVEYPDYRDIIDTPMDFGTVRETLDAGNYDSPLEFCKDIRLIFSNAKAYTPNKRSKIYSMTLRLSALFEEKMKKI
T14 sequence (P51531 1378-1506 limits assumed): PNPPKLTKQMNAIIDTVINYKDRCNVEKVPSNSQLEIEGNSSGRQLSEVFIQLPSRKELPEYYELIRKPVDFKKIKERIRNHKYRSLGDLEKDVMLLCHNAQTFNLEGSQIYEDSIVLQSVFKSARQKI
T23 sequence (Q9ULI0 951-1066 limits assumed): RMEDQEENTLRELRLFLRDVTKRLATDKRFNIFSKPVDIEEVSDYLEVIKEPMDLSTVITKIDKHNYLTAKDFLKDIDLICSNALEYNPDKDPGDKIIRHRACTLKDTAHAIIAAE

With COc1cc(-c2cn(C)c(=O)c3cnccc23)cc(OC)c1CN(C)CC(=O)NCCOCCOCCNc1cccc2c1C(=O)N(C1CCC(=O)NC1=O)C2=O (centres unmarked) [Compound I-25] the “BRD7 degradation (immunoblot)” value (BRD7 [1]) was “not able to induce degradation of BRD7 at any of the concentrations”, the efficacy on viability [2] was “comparable efficacy” and the “% Ctrl @ 1 μM” value (ATAD2A) was 94 % Ctrl. The “% Ctrl @ 1 μM” value (TRIM24 (PHD, Bromo.)) was 98 % Ctrl, the “% Ctrl @ 1 μM” value (CREBBP) was 88 % Ctrl and the “% Ctrl @ 1 μM” value (BRDT(1)) was 90 % Ctrl. The “% Ctrl @ 1 μM” value (TAF1(2)) was 63 % Ctrl, the “% Ctrl @ 1 μM” value (BAZ^2A) was 62 % Ctrl and the “% Ctrl @ 1 μM” value (BRD3(2)) was 85 % Ctrl. The “% Ctrl @ 1 μM” value (CECR2) was 14 % Ctrl, the “% Ctrl @ 1 μM” value (PBRM1(5)) was 89 % Ctrl and the “% Ctrl @ 1 μM” value (BRD2(2)) was 93 % Ctrl. For the same molecule, the “% Ctrl @ 1 μM” value (BRD1) was 75 % Ctrl, the “% Ctrl @ 1 μM” value (BRDT(2)) was 83 % Ctrl and the “% Ctrl @ 1 μM” value (WDR9(2)) was 86 % Ctrl. For the same molecule, the “% Ctrl @ 1 μM” value (SMARCA2) was 70 % Ctrl, the “% Ctrl @ 1 μM” value (GCN5L2) was 77 % Ctrl and the “% Ctrl @ 1 μM” value (TAF1L(2)) was 80 % Ctrl. For the same molecule, the “% Ctrl @ 1 μM” value (BRPF1) was 75 % Ctrl, the “% Ctrl @ 1 μM” value (FALZ) was 79 % Ctrl and the “% Ctrl @ 1 μM” value (BRD2(1)) was 81 % Ctrl. The “% Ctrl @ 1 μM” value (PBRM1(2)) was 79 % Ctrl, the “% Ctrl @ 1 μM” value (PCAF) was 67 % Ctrl and the “% Ctrl @ 1 μM” value (EP300) was 88 % Ctrl. For the same molecule, the “% Ctrl @ 1 μM” value (ATAD2B) was 81 % Ctrl, the “% Ctrl @ 1 μM” value (BRD3(1)) was 87 % Ctrl and the “% Ctrl @ 1 μM” value (BAZ^2B) was 75 % Ctrl. For the same molecule, the “% Ctrl @ 1 μM” value (BRPF3) was 86 % Ctrl, the “% Ctrl @ 1 μM” value (BRD7 [3]) was 25 % Ctrl and the “% Ctrl @ 1 μM” value (SMARCA4) was 57 % Ctrl. The “% Ctrl @ 1 μM” value (TRIM33 (PHD, Bromo.)) was 100 % Ctrl and the bromodomain interaction profile [4] was “exclusive interaction with BRD9; also recorded: exclusively interacts with BRD9”.
